Values quoted from earlier work, collected in patent US20250268820A1 (Zambon S.p.A., priority 2020, published 2025).
Values belong to the compound of their own block, whether it stands above or below them.

What was measured:
[1] = system: invasive aspergillosis
[2] = in vivo

Compound: OC(Cn1cncn1)(Cn1cncn1)c1ccc(F)cc1F [Fluconazole]
activity against invasive aspergillosis [1]: not active

ELF exposure as fraction of the plasma concentration (healthy volunteers): approximately ⅓ | concentration in the alveolar cells with respect to the plasma concentration (healthy volunteers): more than double | concentrations in bronchoalveolar lavage fluid and lung tissue in the airways versus plasma (other cases): 10 times lower
Compound: CCC(C)n1ncn(-c2ccc(N3CCN(c4ccc(OCC5COC(Cn6cncn6)(c6ccc(Cl)cc6Cl)O5)cc4)CC3)cc2)c1=O (stereo not drawn) [itraconazole]

pharmacokinetic profile (Cmax and AUC versus dose) [2]: non-linear
Compound: C[C@@H](c1ncncc1F)[C@](O)(Cn1cncn1)c1ccc(F)cc1F [voriconazole]
concentration in homogenates of lung tissue versus plasma (post-mortem studies, treated patients): comparable to those measured in the plasma
